Experimental data published in US20060069132A1, “Azolecarboxamide herbicides” (priority 2004, published 2006).

Columns and labels:
[1] = tested on: barnyardgrass; experiment: Test B pre-/postemergence herbicide test; format: in vivo, Echinochloa crus-galli
Summary of the method: (§1)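 Evaluation is visual, comparing treated with control plants on a scale where 0 means no effect and 100 means full control. Treatments were preemergence, or postemergence on seedlings 2–18 cm tall, and held 13–15 days in the greenhouse.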

[2] = tested on: Surinam grass; experiment: Test B pre-/postemergence herbicide test; format: in vivo, Urochloa decumbens
Summary of the method: (§2)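 Seeds were planted and treated preemergence with compounds formulated in a non-phytotoxic solvent mixture containing surfactant, while plants at the 1- to 4-leaf stage (2 to 18 cm) received postemergence sprays. Flooded paddy plants were grown to the 2-leaf stage. After 13 to 15 days in a greenhouse, injury was visually rated 0–100 against untreated controls.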

[3] = tested on: cocklebur; experiment: Test B pre-/postemergence herbicide test; format: in vivo, Xanthium strumarium
Summary of the method: as §1

[4] = tested on: corn; experiment: Test B pre-/postemergence herbicide test; format: in vivo, Zea mays
Summary of the method: as §2

[5] = tested on: large crabgrass; experiment: Test B pre-/postemergence herbicide test; format: in vivo, Digitaria sanguinalis
Summary of the method: as §2

[6] = tested on: giant foxtail; experiment: Test B pre-/postemergence herbicide test; format: in vivo, Setaria faberi
Summary of the method: as §2

[7] = tested on: lambsquarters; experiment: Test B pre-/postemergence herbicide test; format: in vivo, Chenopodium album
Summary of the method: as §2

[8] = tested on: morningglory; experiment: Test B pre-/postemergence herbicide test; format: in vivo, Ipomoea coccinea
Summary of the method: as §1

[9] = tested on: pigweed; experiment: Test B pre-/postemergence herbicide test; format: in vivo, Amaranthus retroflexus
Summary of the method: as §2

[10] = tested on: velvetleaf; experiment: Test B pre-/postemergence herbicide test; format: in vivo, Abutilon theophrasti
Summary of the method: as §2

[11] = tested on: blackgrass; experiment: Test B postemergence herbicide test; format: in vivo, Alopecurus myosuroides; settings: scale 0 (no effect) to 100 (complete control); for Blackgrass plant response rating: 125 g ai/ha; for Plant response rating, Blackgrass: 500 g ai/ha, visual rating after 13 to 15 days
Summary of the method: (§3)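 Each value is a visual 0–100 response rating taken against controls 13 to 15 days after treatment in the greenhouse. Plants received formulated chemical postemergence at the 1- to 4-leaf stage or, in flooded paddy, at the 2-leaf stage.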

[12] = tested on: wheat; experiment: Test B postemergence herbicide test; format: in vivo, Triticum aestivum; parameters: key to Wheat plant response rating: 0 = no effect, 100 = complete control; settings: scale 0 (no effect) to 100 (complete control); for Plant response rating, Wheat: Postemergence, 500 g ai/ha, visual rating after 13 to 15 days; for Wheat plant response rating: postemergence, 125 g ai/ha, visual rating
Summary of the method: (§4)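 Postemergence plants were sprayed with formulated test chemicals at 2 to 18 cm height (1- to 4-leaf stage); paddy species were grown to the 2-leaf stage. After 13 to 15 days in a greenhouse, injury was rated visually against untreated controls on a 0–100 scale (0 = no effect, 100 = complete control).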

[13] = tested on: wild oat; experiment: Test B postemergence herbicide test; format: in vivo, Avena fatua; settings: scale 0 (no effect) to 100 (complete control); for Oat, Wild plant response rating: 125 g ai/ha; for Plant response rating, Oat, Wild: 500 g ai/ha, visual rating after 13 to 15 days
Summary of the method: as §4

[14] = tested on: small flower umbrella sedge; experiment: Test B flooded paddy test; format: in vivo, Cyperus difformis; settings: 1000 g ai/ha, visual rating, scale 0 to 100 (0 no effect, 100 complete control), 13 to 15 days
Summary of the method: as §3

[15] = Postemergence, 125 g ai/ha, scale 0 (no effect) to 100 (complete control)
[16] = Postemergence, 500 g ai/ha, visual rating after 13 to 15 days, scale 0 (no effect) to 100 (complete control)
[17] = Preemergence, 500 g ai/ha, scale 0 to 100
[18] = preemergence, 125 g ai/ha, 0 to 100 scale, 0 is no effect, 100 is complete control
[19] = postemergence, 125 g ai/ha, visual rating, scale 0 (no effect) to 100 (complete control)

CCn1nc(C(C)(C)C)cc1C(=O)Nc1cccc(C(=O)NCCF)c1 [Compound 45]
Barnyardgrass plant response rating [1, 15]: 20 | Plant response rating, Barnyardgrass [1, 16]: 30 | Barnyardgrass plant response rating [1, 17]: 100 | Plant response rating, Surinam Grass [2, 16]: 30 | Surinam Grass plant response rating [2, 17]: 50 | Plant response rating, Surinam Grass [2, 18]: 20 | Cocklebur plant response rating [3, 15]: 20 | Plant response rating, Cocklebur [3, 16]: 80 | Cocklebur plant response rating [3, 17]: 80 | Corn plant response rating [4, 15]: 20 | Plant response rating, Corn [4, 16]: 30 | Corn plant response rating [4, 17]: 30 | Crabgrass, Large plant response rating [5, 15]: 30 | Plant response rating, Crabgrass, Large [5, 16]: 30 | Crabgrass, Large plant response rating [5, 17]: 90 | Foxtail, Giant plant response rating [6, 15]: 20 | Plant response rating, Foxtail, Giant [6, 16]: 30 | Foxtail, Giant plant response rating [6, 17]: 100 | Plant response rating, Foxtail, Giant [6, 18]: 10 | Lambsquarters plant response rating [7, 15]: 80 | Plant response rating, Lambsquarters [7, 16]: 90 | Lambsquarters plant response rating [7, 17]: 100 | Plant response rating, Lambsquarters [7, 18]: 100 | Morningglory plant response rating [8, 15]: 40 | Plant response rating, Morningglory [8, 16]: 90 | Morningglory plant response rating [8, 17]: 30 | Plant response rating, Morningglory [8, 18]: 10 | Plant response rating, Pigweed [9, 16]: 100 | Pigweed plant response rating [9, 17]: 100 | Plant response rating, Pigweed [9, 18]: 100 | Plant response rating, Velvetleaf [10, 16]: 70 | Velvetleaf plant response rating [10, 17]: 100 | Plant response rating, Velvetleaf [10, 18]: 20 | Blackgrass plant response rating ([11]; Postemergence): 10 | Plant response rating, Blackgrass ([11]; Postemergence): 20 | Plant response rating, Wheat [12]: 30 | Oat, Wild plant response rating ([13]; Postemergence): 0 | Plant response rating, Oat, Wild ([13]; Postemergence): 20 | Sedge, Umbrella plant response rating [14]: 70

CCn1nc(C(C)(C)C)cc1C(=O)Nc1cccc(C(=O)NC(C)C)c1 [Compound 51]
Plant response rating, Barnyardgrass [1, 16]: 80 | Barnyardgrass plant response rating [1, 17]: 100 | Barnyardgrass plant response rating [1, 19]: 60 | Plant response rating, Barnyardgrass [1, 18]: 80 | Plant response rating, Surinam Grass [2, 16]: 20 | Surinam Grass plant response rating [2, 17]: 80 | Surinam Grass plant response rating [2, 19]: 10 | Plant response rating, Surinam Grass [2, 18]: 30 | Plant response rating, Cocklebur [3, 16]: 80 | Cocklebur plant response rating [3, 17]: 50 | Cocklebur plant response rating [3, 19]: 70 | Plant response rating, Cocklebur [3, 18]: 0 | Plant response rating, Corn [4, 16]: 0 | Corn plant response rating [4, 17]: 50 | Corn plant response rating [4, 19]: 0 | Plant response rating, Corn [4, 18]: 0 | Plant response rating, Crabgrass, Large [5, 16]: 50 | Crabgrass, Large plant response rating [5, 17]: 100 | Crabgrass, Large plant response rating [5, 19]: 20 | Plant response rating, Crabgrass, Large [5, 18]: 90 | Plant response rating, Foxtail, Giant [6, 16]: 0 | Foxtail, Giant plant response rating [6, 17]: 100 | Foxtail, Giant plant response rating [6, 19]: 0 | Plant response rating, Foxtail, Giant [6, 18]: 100 | Plant response rating, Lambsquarters [7, 16]: 90 | Lambsquarters plant response rating [7, 17]: 100 | Lambsquarters plant response rating [7, 19]: 80 | Plant response rating, Lambsquarters [7, 18]: 100 | Plant response rating, Morningglory [8, 16]: 0 | Morningglory plant response rating [8, 17]: 0 | Morningglory plant response rating [8, 19]: 0 | Plant response rating, Morningglory [8, 18]: 0 | Plant response rating, Pigweed [9, 16]: 100 | Pigweed plant response rating [9, 17]: 100 | Pigweed plant response rating [9, 19]: 80 | Plant response rating, Pigweed [9, 18]: 100 | Plant response rating, Velvetleaf [10, 16]: 70 | Velvetleaf plant response rating [10, 17]: 100 | Velvetleaf plant response rating [10, 19]: 60 | Plant response rating, Velvetleaf [10, 18]: 50 | Plant response rating, Blackgrass ([11]; Postemergence): 0 | Blackgrass plant response rating ([11]; postemergence, visual rating): 0 | Plant response rating, Wheat [12]: 20 | Wheat plant response rating [12]: 20 | Plant response rating, Oat, Wild ([13]; Postemergence): 10 | Oat, Wild plant response rating ([13]; postemergence, visual rating): 0 | Sedge, Umbrella plant response rating [14]: 80

C=CCn1nc(C(C)(C)C)cc1C(=O)Nc1cccc(C(=O)NCC)c1 [Compound 56]
Plant response rating, Barnyardgrass [1, 16]: 20 | Barnyardgrass plant response rating [1, 17]: 80 | Barnyardgrass plant response rating [1, 19]: 20 | Plant response rating, Barnyardgrass [1, 18]: 50 | Plant response rating, Surinam Grass [2, 16]: 30 | Surinam Grass plant response rating [2, 17]: 60 | Surinam Grass plant response rating [2, 19]: 20 | Plant response rating, Surinam Grass [2, 18]: 30 | Plant response rating, Cocklebur [3, 16]: 80 | Cocklebur plant response rating [3, 17]: 20 | Cocklebur plant response rating [3, 19]: 80 | Plant response rating, Cocklebur [3, 18]: 0 | Plant response rating, Corn [4, 16]: 30 | Corn plant response rating [4, 17]: 20 | Corn plant response rating [4, 19]: 20 | Plant response rating, Corn [4, 18]: 0 | Plant response rating, Crabgrass, Large [5, 16]: 20 | Crabgrass, Large plant response rating [5, 17]: 100 | Crabgrass, Large plant response rating [5, 19]: 10 | Plant response rating, Crabgrass, Large [5, 18]: 70 | Plant response rating, Foxtail, Giant [6, 16]: 20 | Foxtail, Giant plant response rating [6, 17]: 100 | Foxtail, Giant plant response rating [6, 19]: 20 | Plant response rating, Foxtail, Giant [6, 18]: 60 | Plant response rating, Lambsquarters [7, 16]: 90 | Lambsquarters plant response rating [7, 17]: 100 | Lambsquarters plant response rating [7, 19]: 80 | Plant response rating, Lambsquarters [7, 18]: 100 | Plant response rating, Morningglory [8, 16]: 20 | Morningglory plant response rating [8, 17]: 20 | Morningglory plant response rating [8, 19]: 0 | Plant response rating, Morningglory [8, 18]: 20 | Plant response rating, Pigweed [9, 16]: 90 | Pigweed plant response rating [9, 17]: 100 | Pigweed plant response rating [9, 19]: 60 | Plant response rating, Pigweed [9, 18]: 30 | Plant response rating, Velvetleaf [10, 16]: 50 | Velvetleaf plant response rating [10, 17]: 100 | Velvetleaf plant response rating [10, 19]: 40 | Plant response rating, Velvetleaf [10, 18]: 0 | Plant response rating, Blackgrass ([11]; Postemergence): 10 | Blackgrass plant response rating ([11]; postemergence, visual rating): 0 | Plant response rating, Wheat [12]: 20 | Wheat plant response rating [12]: 10 | Plant response rating, Oat, Wild ([13]; Postemergence): 20 | Oat, Wild plant response rating ([13]; postemergence, visual rating): 20 | Sedge, Umbrella plant response rating [14]: 80

CCn1nc(C(C)(C)C)cc1C(=O)Nc1cccc(C(=O)NCC(C)C)c1 [Compound 61]
Plant response rating, Barnyardgrass [1, 16]: 30 | Barnyardgrass plant response rating [1, 17]: 60 | Barnyardgrass plant response rating [1, 19]: 20 | Plant response rating, Barnyardgrass [1, 18]: 20 | Plant response rating, Surinam Grass [2, 16]: 30 | Surinam Grass plant response rating [2, 19]: 20 | Plant response rating, Surinam Grass [2, 18]: 10 | Plant response rating, Cocklebur [3, 16]: 100 | Cocklebur plant response rating [3, 17]: 0 | Cocklebur plant response rating [3, 19]: 60 | Plant response rating, Cocklebur [3, 18]: 0 | Plant response rating, Corn [4, 16]: 40 | Corn plant response rating [4, 17]: 10 | Corn plant response rating [4, 19]: 20 | Plant response rating, Corn [4, 18]: 0 | Plant response rating, Crabgrass, Large [5, 16]: 30 | Crabgrass, Large plant response rating [5, 17]: 100 | Crabgrass, Large plant response rating [5, 19]: 20 | Plant response rating, Crabgrass, Large [5, 18]: 50 | Plant response rating, Foxtail, Giant [6, 16]: 30 | Foxtail, Giant plant response rating [6, 17]: 80 | Foxtail, Giant plant response rating [6, 19]: 20 | Plant response rating, Foxtail, Giant [6, 18]: 20 | Plant response rating, Lambsquarters [7, 16]: 100 | Lambsquarters plant response rating [7, 19]: 90 | Plant response rating, Lambsquarters [7, 18]: 100 | Plant response rating, Morningglory [8, 16]: 50 | Morningglory plant response rating [8, 19]: 20 | Plant response rating, Pigweed [9, 16]: 60 | Pigweed plant response rating [9, 19]: 20 | Plant response rating, Pigweed [9, 18]: 80 | Plant response rating, Velvetleaf [10, 16]: 70 | Velvetleaf plant response rating [10, 19]: 30 | Plant response rating, Velvetleaf [10, 18]: 70 | Plant response rating, Blackgrass ([11]; Postemergence): 0 | Blackgrass plant response rating ([11]; postemergence, visual rating): 0 | Plant response rating, Wheat [12]: 10 | Wheat plant response rating [12]: 10 | Plant response rating, Oat, Wild ([13]; Postemergence): 20 | Oat, Wild plant response rating ([13]; postemergence, visual rating): 20 | Sedge, Umbrella plant response rating [14]: 60
